In patent US11712443B2, “17α-monoesters and 17α,21-diesters of cortexolone for use in the treatment of tumors” (COSMO TECHNOLOGIES LTD., priority 2014, dated 2023):
pIC50: −log10 of the molar value.

Assays:
Caspase 3/7 = experiment: Caspase activity assay in MiaPaca2 cells; assay type: cell-based; settings: 8, 24, 48 hours, FIG. 11
Experimental: To better analyze the phenomenon the enzymatic activity of Caspase 8 (initiator caspase for Extrinsic Pathway) and Caspase 9 (initiator caspase for Intrinsic Pathway) and of Caspases 3 and 7 (effector caspases) were measured.
After 8, 24, & 48 hours incubation with test compounds, cells were lysed in buffer containing the caspase 3/7 or 8 or 9 substrate and a stable luciferase in proprietary buffers. The lysates were transferred to white opaque plates before measuring luminescence in a Tecan S afire instrument. Parallel plates treated identically, were used to determine viable cells. All caspase activities were corrected for the number of viable cells.

stimulated PBMC = experiment: IC50 on stimulated PBMC (actively dividing cells); settings: for Therapeutic Index = IC50 resting PBMC/IC50 cancer cell: PBMC Stim, healthy lymphocyte, Table IV; for Therapeutic Index = IC50 stimulated PBMC/IC50 cancer cell, AVERAGE: average across the 7 cancer cell lines, Table VII
Experimental: The IC^50 in PBMC were tested in 2 different activation status:
stimulated—actively dividing cells
IC50 of the compounds was determined on fresh cells isolated from human blood (PBMC). The compounds toxicity was determined as follow: Therapeutic Index=Safety/Potency=IC50 stimulated PBMC_/IC50 cancer cell

LNCaP = experiment: ATP-dependent proliferation/viability assay (Cell Titer Glo), 3 days; settings: Homo sapiens, LNCaP, 72 h, LNCaP (AR+); 10 nM DHT; 3 days; Examples 1-2 Experiment 1, sigmoidal dose response fit
Experimental: (§1) The experiment was performed to test and to define the antitumor activity in vitro of cortexolone 17α-benzoate on LNCaP (AR+) and PC3 (AR^−), representative of Prostatic cancer cell lines with Androgen Receptor (AR) positive or negative expression, respectively. The experimental method consisted of: • 1. […] After 24 hours, 10 nM DHT (dihydrotestosterone) with or without anti-androgen compounds, or DMSO vehicle (negative control) was added to the cultures. • 3.
as §1, with “define” for “define the”, “17α-valerate-21-propionate (CB-03-10)” for “17α-benzoate”, “AR” for “Androgen Receptor (AR)”

[1] = system: MiaPaca-2 pancreatic tumor xenograft; experiment: Human pancreatic tumor xenograft in nude mice, subcutaneous treatment; assay type: in vivo; settings: for average tumor size increase: Cyproterone Acetate treatment groups (7.4 mg/kg and 37 mg/kg) SC daily 28 days
Experimental: The test was carried out comparing the anti-tumor activity of cortexolone 17α-benzoate at two different dosages (8.0 mg/kg, corresponding approximately at 230 μM, and 40 mg/kg, corresponding approximately at 1150 μM), versus the vehicle (i.e. 0.4% (v/v) tween 80 and 0.5% (w/v) carboxymethylcellulose in normal saline) and versus the comparator Cyproterone Acetate at two different dosages (7.4 mg/kg and 37 mg/kg).
1×10^6 MiaPaca-2 cells suspended in matrigel were subcutaneously injected into 6 week old athymic nude mice.
The treatment with the tested compounds, with the vehicle and with the comparative compound, was initiated after the tumor volume has reached 50 mm3 after transplantation. All compounds were injected 100 μL/mouse subcutaneously of low dose solution (approximately 230 μM) or 100 μL/mouse of high dose solution (approximately 1150 μM) of cortexolone 17α-benzoate, vehicle and cyproterone acetate, respectively. Compounds and controls were administered subcutaneously daily for 28 days.
Tumors were measured every 4 days with a digital caliper.
The results are plotted in FIG. 1 as average change in tumor volume relative to the start of treatment. Tumor volume was calculated according to the formula 0.5236(r1)^2(r2) where r1<r2.
The test was carried out comparing the anti-tumor activity of cortexolone 17α-valerate-21-propionate (CB-03-10) at two different dosages (approximately 8.6 mg/kg and 43 mg/kg) versus the vehicle (i.e. 0.4% (v/v) tween 80 and 0.5% (w/v) carboxymethylcellulose in normal saline) and versus the comparator Cyproterone Acetate at two different dosages (7.4 mg/kg and 37 mg/kg).
The treatment with the tested compound, with the vehicle and with the comparative compound was initiated after the tumor has reached a volume of 50 mm3 after implantation, injecting subcutaneously 100 μL/mouse of low dose solution (approximately 230 μM) or 100 μL/mouse of high dose solution (approximately 1150 μM) of cortexolone 17α-valerate-21-propionate (CB-03-10), vehicle and cyproterone acetate, respectively. Compounds and controls were administered subcutaneously daily for 28 days.
The results are plotted in FIG. 2 as average change in tumor volume relative to the start of treatment. Tumor volume was calculated according to the formula 0.5236(r1)^2(r2) where r1<r2.
CPA a well-known anti-androgen was used as control. Briefly 1×10^6 MiaPaca2 cells suspended in matrigel were subcutaneously (SC) injected into 6 week old male athymic nude mice. Tumors were measured every 4 days with a digital caliper. Tumor volume was calculated according to the formula: 0.5236(r1)2(r2) where r1<r2. Treatment with CB-03-10 and controls compounds was initiated after the tumor had reached 50 mm3. Compounds diluted in DMSO/2-hydroxypropyl b-cyclodextrin (vehicle) were injected subcutaneously (SC) daily (100 μL/mouse) at the concentration of 40 mg/Kg daily for 28 consecutive days.

Panc1 = experiment: ATP-dependent proliferation/viability assay (Cell Titer Glo), 3 days; settings: IC50 stimulated PBMC / IC50 Panc1; Experiment 1; 0 = higher toxicity in PBMC than in the cancer cell lines
MDA-MB-231 = experiment: In vitro proliferation / cytotoxic assay on breast cancer cells (cell titer glo); assay type: cell-based
Experimental: (§2) For the cytotoxic assay: cells seeded in 96 well flat bottom culture plates in media containing charcoal stripped serum. After 24 hours test compounds were added to the cells. DMSO was used as the vehicle negative control and RU486 as the positive control. After 72 hours incubation cell were harvested, lysed and viability determined using the cell titer glow assay for viability.

HT29 = experiment: In vitro proliferation, larger cancer cell line panel; settings: Homo sapiens, HT-29, read-out: in vitro proliferation IC50
MCF7 = experiment: In vitro proliferation / cytotoxic assay on breast cancer cells (cell titer glo); settings: MCF7 (ER+PR+GR+/-); 72 hours; Table VI prints no unit (same values in Table III in μM)
Experimental: as §2

[2] = system: LNCaP prostate cancer xenograft; experiment: Human prostate cancer xenograft in nude mice, oral treatment; assay type: in vivo
Experimental: 3×10^6 LNCaP cells suspended in matrigel were subcutaneously injected (on the right flank) into 6 week old male athymic nude mice. Tumors were measured as described above. Treatment with CB-03-10 and controls compounds was initiated after the tumor had reached 50 mm3. […] Oral dosing was daily (100 mg/Kg in 200 μL/mouse) for 28 consecutive days. Results were plotted as average change in tumor volume relative to the start of treatment.

## Nc1ccn([C@@H]2O[C@H](CO)[C@@H](O)C2(F)F)c(=O)n1 [Gemcitabine, reference compound]
Caspase 3/7
  Caspase 3/7 induction / caspase activation profile: not seen until the 48 hours mark

## CCCC(=O)OCC(=O)[C@@]1(OC(=O)CCC)CCC2C3CCC4=CC(=O)CC[C@]4(C)C3CC[C@@]21C (some centres unmarked) [CB-03-03]
Stimulated PBMC
  Therapeutic Index = IC50 resting PBMC/IC50 cancer cell: 1
  Therapeutic Index = IC50 stimulated PBMC/IC50 cancer cell, AVERAGE: 4

## CC(=O)O[C@]1(C(C)=O)CC[C@H]2[C@@H]3C=C(Cl)C4=CC(=O)[C@@H]5C[C@@H]5[C@]4(C)[C@H]3CC[C@@]21C [Cyproterone Acetate, Cyproterone acetate, reference compound]
LNCaP
  pIC50: 4.54
[1]; Example 5
  average tumor size increase: 12 fold
[1]; Example 6
  average tumor size increase: ≥ 12 fold
[1]; Example 22, 40 mg/Kg SC daily 28 days, vehicle 60 days
  Median survival: 40 days
Stimulated PBMC
  Therapeutic Index = IC50 resting PBMC/IC50 cancer cell: 1
  Therapeutic Index = IC50 stimulated PBMC/IC50 cancer cell, AVERAGE: 1
Panc1
  TI on Stimulated PBMC: 1

## CCCCC(=O)O[C@]1(C(=O)CO)CC[C@H]2[C@@H]3CCC4=CC(=O)CC[C@]4(C)[C@H]3CC[C@@]21C [CB-03-05, cortexolone 17α-valerate]
MDA-MB-231; MDA-MB-231 (ER-PR-GR++), TNBC, 72 hours, Table VI prints no unit (same values in Table III in μM)
  IC50: Not active
MDA-MB-231; MDA-MB-231, Table III
  in vitro proliferation IC50: not active
Caspase 3/7
  Caspase 3/7 induction / caspase activation profile: does not show a good profile for caspase activation
Stimulated PBMC
  Therapeutic Index = IC50 resting PBMC/IC50 cancer cell: 1
  Therapeutic Index = IC50 stimulated PBMC/IC50 cancer cell, AVERAGE: 3
HT29
  pIC50: 3.28

## CCC(=O)O[C@]1(C(=O)CO)CC[C@H]2[C@@H]3CCC4=CC(=O)CC[C@]4(C)[C@H]3CC[C@@]21C [CB-03-01]
Stimulated PBMC
  Therapeutic Index = IC50 resting PBMC/IC50 cancer cell: 1
  Therapeutic Index = IC50 stimulated PBMC/IC50 cancer cell, AVERAGE: 0

## CCCC(=O)OC1(C(=O)CO)CCC2C3CCC4=CC(=O)CC[C@]4(C)C3=CC[C@@]21C (single isomer, unassigned) [CB-03-04]
Stimulated PBMC
  Therapeutic Index = IC50 resting PBMC/IC50 cancer cell: 1
  Therapeutic Index = IC50 stimulated PBMC/IC50 cancer cell, AVERAGE: 4

## CC#C[C@]1(O)CC[C@H]2[C@@H]3CCC4=CC(=O)CCC4=C3[C@@H](c3ccc(N(C)C)cc3)C[C@@]21C [RU486, Mifepristone, reference compound]
MCF7
  IC50: Not active

## CNC(=O)c1ccc(N2C(=S)N(c3ccc(C#N)c(C(F)(F)F)c3)C(=O)C2(C)C)cc1F [Enzalutamide, reference compound]
[2]; oral 100 mg/Kg daily 28 days, after stop
  prostate tumor size increase after treatment was stopped: 8 fold
[2]; oral gavage, FIG. 16
  statistical significance of tumor growth versus vehicle: statistically significant only on days 14 and 25
